Test results reported in ChEMBL document CHEMBL4229463, “Regio- and stereospecific synthesis of rac-carbasugar-based cyclohexane pentols; Investigations of their α- and β-glucosidase inhibitions” (Bioorg Med Chem, 2018).

Tests used:
Saccharomyces cerevisiae [1] = assay: Inhibition of Saccharomyces cerevisiae alpha-glucosidase at 120 uM using PNPG as substrate after 3 mins by UV-vis spectrophotometric method relative to control
Prunus dulcis [2] = assay: Inhibition of almond beta-glucosidase at 20 uM using PNPG as substrate after 3 mins by UV-vis spectrophotometric method relative to control
Saccharomyces cerevisiae [3] = assay: Inhibition of Saccharomyces cerevisiae alpha-glucosidase at 80 uM using PNPG as substrate after 3 mins by UV-vis spectrophotometric method relative to control
Saccharomyces cerevisiae [4] = assay: Inhibition of Saccharomyces cerevisiae alpha-glucosidase at 10 uM using PNPG as substrate after 3 mins by UV-vis spectrophotometric method relative to control
Prunus dulcis [5] = assay: Inhibition of almond beta-glucosidase at 80 uM using PNPG as substrate after 3 mins by UV-vis spectrophotometric method relative to control
Saccharomyces cerevisiae [6] = assay: Inhibition of Saccharomyces cerevisiae alpha-glucosidase at 20 uM using PNPG as substrate after 3 mins by UV-vis spectrophotometric method relative to control
Saccharomyces cerevisiae [7] = assay: Inhibition of Saccharomyces cerevisiae alpha-glucosidase at 60 uM using PNPG as substrate after 3 mins by UV-vis spectrophotometric method relative to control
Prunus dulcis [8] = assay: Inhibition of almond beta-glucosidase at 40 uM using PNPG as substrate after 3 mins by UV-vis spectrophotometric method relative to control
Prunus dulcis [9] = assay: Inhibition of almond beta-glucosidase at 120 uM using PNPG as substrate after 3 mins by UV-vis spectrophotometric method relative to control
Prunus dulcis [10] = assay: Inhibition of almond beta-glucosidase at 60 uM using PNPG as substrate after 3 mins by UV-vis spectrophotometric method relative to control
Prunus dulcis [11] = assay: Inhibition of almond beta-glucosidase at 10 uM using PNPG as substrate after 3 mins by UV-vis spectrophotometric method relative to control
[12] = Inhibition of Saccharomyces cerevisiae alpha-glucosidase using PNPG as substrate after 3 mins by UV-vis spectrophotometric method
Saccharomyces cerevisiae [13] = assay: Inhibition of Saccharomyces cerevisiae alpha-glucosidase at 40 uM using PNPG as substrate after 3 mins by UV-vis spectrophotometric method relative to control
[14] = Inhibition of almond beta-glucosidase using PNPG as substrate after 3 mins by UV-vis spectrophotometric method; parameters: species or system Prunus dulcis

Row | SMILES | inhibition (Saccharomyces cerevisiae [1]) | inhibition (Prunus dulcis [2]) | inhibition (Saccharomyces cerevisiae [3]) | inhibition (Saccharomyces cerevisiae [4]) | inhibition (Prunus dulcis [5]) | inhibition (Saccharomyces cerevisiae [6]) | inhibition (Saccharomyces cerevisiae [7]) | inhibition (Prunus dulcis [8]) | inhibition (Prunus dulcis [9]) | inhibition (Prunus dulcis [10]) | inhibition (Prunus dulcis [11]) | IC50 [12] | inhibition (Saccharomyces cerevisiae [13]) | IC50 [14]
1 | OC[C@H]1C[C@H](Cl)[C@@H](O)[C@H](O)[C@H]1CO (racemic) | 55% | 5.2% | 38% | 12.2% | 24.1% | 13.3% | 26.1% | 19.1% | 32.3% | 20.6% | 1.99% | 176 µM | 15% | 
2 | OC[C@H]1C[C@@H](O)[C@H](O)[C@@H](O)[C@H]1CO (racemic) | 44.6% | 5.22% | 33.6% | 10.4% | 33.8% | 12.1% | 25.3% | 25.1% | 36.8% | 30.8% | 3.74% |  | 22.5% | 
3 | OC[C@H]1C[C@H](O)[C@@H](Cl)[C@H](O)[C@H]1CO (racemic) | 56.4% | 11.7% | 34.8% | 3.98% | 24.6% | 7.9% | 23% | 18.4% | 26.4% | 21.1% | 2.49% | 155 µM | 20.4% | 

Next, values leading:

Row | inhibition (Saccharomyces cerevisiae [1]) | inhibition (Prunus dulcis [2]) | inhibition (Saccharomyces cerevisiae [3]) | inhibition (Saccharomyces cerevisiae [4]) | inhibition (Prunus dulcis [5]) | inhibition (Saccharomyces cerevisiae [6]) | inhibition (Saccharomyces cerevisiae [7]) | inhibition (Prunus dulcis [8]) | inhibition (Prunus dulcis [9]) | inhibition (Prunus dulcis [10]) | inhibition (Prunus dulcis [11]) | IC50 [12] | inhibition (Saccharomyces cerevisiae [13]) | IC50 [14] | SMILES
4 | 16% | 5.97% | 10.8% | 2.13% | 17.7% | 3.6% | 8.5% | 10.9% | 17.4% | 15.4% | 2.24% |  | 7.83% |  | OC[C@H]1C[C@H](O)[C@@H](O)[C@H](O)[C@H]1CO (racemic)
5 | 16.3% |  | 9.5% | 3.42% | 12.9% | 5.59% | 8.21% | 2% | 23% | 4.29% |  |  | 7.93% |  | OC[C@H]1C[C@H](O)[C@H](O)[C@@H](O)[C@H]1CO (racemic)
6 | 78% | 25% | 60% | 22.8% | 58% | 30% | 46% | 40% | 68% | 52% | 17% | 52.2 µM | 33% | 55.9 µM | C[C@H]1O[C@H](O[C@H]2[C@H](O)[C@@H](O)[C@@H](O[C@H]3[C@H](O)[C@@H](O)C(O)O[C@@H]3CO)O[C@@H]2CO)[C@H](O)[C@@H](O)[C@@H]1N[C@H]1C=C(CO)[C@@H](O)[C@H](O)[C@H]1O (some centres undefined) [ACARBOSE]
